# Assay results as given in the supplement of paper PMC10307832.
# Compound: Cn1nnc2c(C(N)=O)ncn2c1=O [Temozolomide] + CCNC(=O)c1noc(-c2cc(C(C)C)c(O)cc2O)c1-c1ccc(CN2CCOCC2)cc1 [Luminespib] (partner 0.01 µM)
# Assay: relative viability (nuclei count vs DMSO), 5 days (fraction); higher = more cells survive
# Conditions: first compound 0.2 µM
# How it was run: (§1)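 Lung cancer cell lines, seeded in 1536-well plates, were treated the following day by pin tool with a single drug or with five library-drug doses (not always all listed) in √10 steps on top of a fixed anchor-drug dose. Cells were fixed and nuclei stained in one step after 5 days, and nuclei were counted. Relative viability is the nuclei count for treated wells divided by that for vehicle wells, reported as medians of duplicate plates.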
row,Cell Line,relative viability
1,LOU-NH91,0.341
2,LU99A,0.265
3,LXF-289,0.712
4,NCI-H23,0.223
5,NCI-H441,0.333
6,NCI-H460,0.0394
7,NCI-H520,0.216
8,NCI-H596,1.15
9,NCI-H647,0.17
10,NCI-H650,0.607
11,NCI-H661,0.977
12,NCI-H727,0.239
13,NCI-H838,0.357
14,NCI-H1355,0.814
15,NCI-H1395,0.51
16,NCI-H1437,1.1
17,NCI-H1651,0.956
18,NCI-H1666,0.976
19,NCI-H1734,0.285
20,NCI-H1755,0.176
21,NCI-H1792,0.412
22,NCI-H1915,0.963
23,NCI-H1944,0.59
24,NCI-H1993,0.856
25,NCI-H2009,1.08
26,NCI-H2023,1.04
27,NCI-H2085,0.476
28,NCI-H2087,0.204
29,NCI-H2126,0.917

# Same assay, conditions: first compound 0.6325 µM
row,Cell Line,relative viability
1,LOU-NH91,0.341
2,LU99A,0.312
3,LXF-289,0.782
4,NCI-H23,0.208
5,NCI-H322M,0.935
6,NCI-H358,0.271
7,NCI-H441,0.515
8,NCI-H460,0.0362
9,NCI-H520,0.216
10,NCI-H596,1.15
11,NCI-H647,0.174
12,NCI-H650,0.898
13,NCI-H661,0.931
14,NCI-H727,0.397
15,NCI-H838,0.346
16,NCI-H1355,0.726
17,NCI-H1395,0.67

row,Cell Line,relative viability
1,NCI-H1437,1.09
2,NCI-H1651,0.935
3,NCI-H1666,0.993
4,NCI-H1734,0.183
5,NCI-H1755,0.5
6,NCI-H1792,0.436
7,NCI-H1793,0.151
8,NCI-H1915,0.761
9,NCI-H1944,0.829
10,NCI-H1975,0.23
11,NCI-H1993,0.783
12,NCI-H2009,1.04
13,NCI-H2023,0.85
14,NCI-H2085,0.415
15,NCI-H2087,0.188
16,NCI-H2126,0.927

# Same assay, conditions: first compound 2 µM
row,Cell Line,relative viability
1,LOU-NH91,0.323
2,LU99A,0.288
3,LXF-289,0.722
4,NCI-H23,0.229
5,NCI-H322M,0.968
6,NCI-H358,0.485
7,NCI-H441,0.331
8,NCI-H460,0.0277
9,NCI-H520,0.234
10,NCI-H596,0.948
11,NCI-H647,0.197
12,NCI-H650,0.816
13,NCI-H661,0.934
14,NCI-H727,0.299
15,NCI-H838,0.35
16,NCI-H1355,0.764
17,NCI-H1395,0.703

row,Cell Line,relative viability
1,NCI-H1437,1.12
2,NCI-H1651,0.578
3,NCI-H1666,0.874
4,NCI-H1734,0.237
5,NCI-H1755,0.435
6,NCI-H1792,0.44
7,NCI-H1793,0.309
8,NCI-H1915,0.616
9,NCI-H1944,0.907
10,NCI-H1975,0.487
11,NCI-H1993,0.764
12,NCI-H2009,1.02
13,NCI-H2023,0.874
14,NCI-H2085,0.41
15,NCI-H2087,0.188
16,NCI-H2126,1

# Same assay, conditions: first compound 6.325 µM
row,Cell Line,relative viability
1,LOU-NH91,0.325
2,LU99A,0.23
3,LXF-289,0.729
4,NCI-H23,0.21
5,NCI-H322M,0.786
6,NCI-H358,0.347
7,NCI-H441,0.306
8,NCI-H460,0.0344
9,NCI-H520,0.222
10,NCI-H596,0.84
11,NCI-H647,0.114
12,NCI-H650,0.739
13,NCI-H661,0.879
14,NCI-H727,0.37
15,NCI-H838,0.301
16,NCI-H1355,0.684
17,NCI-H1395,0.65

row,Cell Line,relative viability
1,NCI-H1437,1.12
2,NCI-H1651,0.662
3,NCI-H1666,0.677
4,NCI-H1734,0.201
5,NCI-H1755,0.387
6,NCI-H1792,0.493
7,NCI-H1793,0.189
8,NCI-H1915,0.429
9,NCI-H1944,0.729
10,NCI-H1975,0.131
11,NCI-H1993,0.75
12,NCI-H2009,0.971
13,NCI-H2023,0.675
14,NCI-H2085,0.449
15,NCI-H2087,0.165
16,NCI-H2126,0.802

# Same assay, conditions: first compound 20 µM
row,Cell Line,relative viability
1,LOU-NH91,0.361
2,LU99A,0.225
3,LXF-289,0.659
4,NCI-H23,0.237
5,NCI-H322M,0.712
6,NCI-H358,0.404
7,NCI-H441,0.368
8,NCI-H460,0.0293
9,NCI-H520,0.21
10,NCI-H596,1.18
11,NCI-H647,0.0944
12,NCI-H650,0.846
13,NCI-H661,0.843
14,NCI-H727,0.325
15,NCI-H838,0.393
16,NCI-H1355,0.641
17,NCI-H1395,0.6

row,Cell Line,relative viability
1,NCI-H1437,1.11
2,NCI-H1651,1.05
3,NCI-H1666,0.701
4,NCI-H1734,0.194
5,NCI-H1755,0.304
6,NCI-H1792,0.508
7,NCI-H1793,0.186
8,NCI-H1915,0.313
9,NCI-H1944,0.711
10,NCI-H1975,0.172
11,NCI-H1993,0.824
12,NCI-H2009,0.983
13,NCI-H2023,0.691
14,NCI-H2085,0.487
15,NCI-H2087,0.168
16,NCI-H2126,0.888

# Compound: Cn1nnc2c(C(N)=O)ncn2c1=O [Temozolomide] + CC(=O)Nc1cccc(-n2c(=O)n(C3CC3)c(=O)c3c(Nc4ccc(I)cc4F)n(C)c(=O)c(C)c32)c1 [Trametinib] (partner 0.02 µM)
# Assay: as above
# Conditions: first compound 0.2 µM
# How it was run: as §1
row,Cell Line,relative viability
1,LOU-NH91,0.731
2,LU99A,0.555
3,LXF-289,0.693
4,NCI-H23,0.353
5,NCI-H322M,0.446
6,NCI-H358,0.108
7,NCI-H441,0.543
8,NCI-H460,0.136
9,NCI-H520,0.715
10,NCI-H596,0.916
11,NCI-H647,0.528
12,NCI-H650,0.954
13,NCI-H661,0.513
14,NCI-H838,0.498
15,NCI-H1355,0.436
16,NCI-H1395,0.815

row,Cell Line,relative viability
1,NCI-H1437,0.539
2,NCI-H1651,0.677
3,NCI-H1666,0.828
4,NCI-H1734,0.722
5,NCI-H1755,0.81
6,NCI-H1792,0.389
7,NCI-H1915,0.29
8,NCI-H1944,0.367
9,NCI-H1975,0.339
10,NCI-H1993,0.429
11,NCI-H2009,0.279
12,NCI-H2023,0.568
13,NCI-H2085,0.527
14,NCI-H2087,0.209
15,NCI-H2126,0.561

# Same assay, conditions: first compound 0.6325 µM
row,Cell Line,relative viability
1,LOU-NH91,0.806
2,LU99A,0.522
3,LXF-289,0.693
4,NCI-H23,0.348
5,NCI-H322M,0.526
6,NCI-H358,0.143
7,NCI-H441,0.642
8,NCI-H460,0.236
9,NCI-H520,0.717
10,NCI-H596,0.714
11,NCI-H647,0.537
12,NCI-H650,1.02
13,NCI-H661,0.564
14,NCI-H727,0.426
15,NCI-H838,0.559
16,NCI-H1355,0.464
17,NCI-H1395,1.06

row,Cell Line,relative viability
1,NCI-H1437,0.544
2,NCI-H1651,0.834
3,NCI-H1666,0.871
4,NCI-H1734,0.694
5,NCI-H1755,0.761
6,NCI-H1792,0.441
7,NCI-H1793,0.463
8,NCI-H1915,0.288
9,NCI-H1944,0.402
10,NCI-H1975,0.31
11,NCI-H1993,0.61
12,NCI-H2009,0.273
13,NCI-H2023,0.635
14,NCI-H2085,0.438
15,NCI-H2087,0.213
16,NCI-H2126,0.588

# Same assay, conditions: first compound 2 µM
row,Cell Line,relative viability
1,LOU-NH91,0.793
2,LU99A,0.6
3,LXF-289,0.683
4,NCI-H23,0.427
5,NCI-H322M,0.569
6,NCI-H358,0.131
7,NCI-H441,0.478
8,NCI-H460,0.158
9,NCI-H520,0.676
10,NCI-H596,0.943
11,NCI-H647,0.56
12,NCI-H650,1.38
13,NCI-H661,0.654
14,NCI-H727,0.397
15,NCI-H838,0.586
16,NCI-H1355,0.483
17,NCI-H1395,1.17

row,Cell Line,relative viability
1,NCI-H1437,0.561
2,NCI-H1651,0.818
3,NCI-H1666,0.739
4,NCI-H1734,0.661
5,NCI-H1755,0.718
6,NCI-H1792,0.471
7,NCI-H1793,0.465
8,NCI-H1915,0.32
9,NCI-H1944,0.435
10,NCI-H1975,0.371
11,NCI-H1993,0.473
12,NCI-H2009,0.389
13,NCI-H2023,0.468
14,NCI-H2085,0.621
15,NCI-H2087,0.255
16,NCI-H2126,0.624

# Same assay, conditions: first compound 6.325 µM
row,Cell Line,relative viability
1,LOU-NH91,0.806
2,LU99A,0.555
3,LXF-289,0.653
4,NCI-H23,0.381
5,NCI-H322M,0.532
6,NCI-H358,0.139
7,NCI-H441,0.425
8,NCI-H460,0.0735
9,NCI-H520,0.683
10,NCI-H596,0.789
11,NCI-H647,0.353
12,NCI-H650,0.869
13,NCI-H661,0.528
14,NCI-H727,0.435
15,NCI-H838,0.482
16,NCI-H1355,0.452
17,NCI-H1395,0.986

row,Cell Line,relative viability
1,NCI-H1437,0.594
2,NCI-H1651,0.77
3,NCI-H1666,0.809
4,NCI-H1734,0.678
5,NCI-H1755,0.664
6,NCI-H1792,0.317
7,NCI-H1793,0.335
8,NCI-H1915,0.24
9,NCI-H1944,0.426
10,NCI-H1975,0.373
11,NCI-H1993,0.455
12,NCI-H2009,0.268
13,NCI-H2023,0.497
14,NCI-H2085,0.513
15,NCI-H2087,0.204
16,NCI-H2126,0.555

# Same assay, conditions: first compound 20 µM
row,Cell Line,relative viability
1,LOU-NH91,0.7
2,LU99A,0.61
3,LXF-289,0.667
4,NCI-H23,0.358
5,NCI-H322M,0.451
6,NCI-H358,0.145
7,NCI-H441,0.459
8,NCI-H460,0.134
9,NCI-H520,0.597
10,NCI-H596,0.877
11,NCI-H647,0.227
12,NCI-H650,1.01
13,NCI-H661,0.562
14,NCI-H727,0.403
15,NCI-H838,0.585
16,NCI-H1355,0.403
17,NCI-H1395,1.02
